Data on three compounds can be found in patent publication EP0041891A1, “6-Methyl-4-(1-piperazinyl)-furo(3,2-c)pyridines, process for their preparation and their therapeutic use” (RIOM LABORATOIRES- C.E.R.M. (Société Anonyme), priority 1980, dated 1981).

A short description of data set [1]: Estimated oral LD50 in the mouse. The following applies: in vivo, estimate, read-out: Evaluation DL 50. From the text:
Dans ce tableau, on indique en outre une estimation de la DL 50 des composés par voie orale chez la souris.

The test system of data set [2] is comportement " muricide " chez le rat LONG-EVANS. Nature of the data set: Antagonism of muricide behaviour in the LONG-EVANS rat (test C). The format is in vivo. The settings on record: 5 mg.kg^-1 i.p., 60 min before the mouse is presented; percent decrease versus control group. On the procedure:
C - Antagonisme du comportement " muricide " chez le rat LONG-EVANS
Les animaux utilisés sont des rats de sexe mâle LONG-EVANS de souche pie-noire, en provenance de l'élevage IFFA CREDO, dont la période d'isolement dans des cages individuelles est supérieure à 6 mois. L'administration des composés (ou du véhicule pour les animaux de groupe de contrôle) est effectuée par voie intrapéritonéale à raison de 5 mg.kg ^1, 60 minutes avant la mise en présence d'une souris avec les rats isolés (n ≥ 8 ) .
Le.comportement classiquement décrit comme " muricide " /VALZELLI L. - Actualités Pharmacologiques, 24, 133-152, (1971)] est positif si le rat tue la souris en un temps inférieur ou égal à 3 minutes.
Les résultats sont exprimés en pourcentage de diminution par rapport à celui du groupe des animaux de contrôle.

In data set [3] the test system is ptosis réserpinique chez la souris. Nature of the data set: Antagonism of reserpine-induced ptosis in the mouse (test A). The format is in vivo. The settings on record: 60 min before reserpine i.p., ptosis score (RUBIN) 3 h after reserpine, pair of scores given. On the procedure: L'activité psychopharmacologique et spécialement l'activité antidépressive des composés de formule I (dans lesquels R représente l'hydrogène ou le radical méthyle) est illustrée par le résultat des tests suivants : • A - Antagonisme du ptosis réserpinique chez la souris Le produit étudié (ou le.véhicule seul - gomme arabique et eau 1/1 - pour le lot témoin) est administré par intubation oesophagienne à des souris de sexe mâle, de souche OF1 IFFA CREDO de poids moyen 22 + 1 g, puis 60 minutes après traitement, tous les animaux reçoivent par voie intrapéritonéale 1 mg.kg de Réserpine base.
Le composé de l'exemple 1 et la quipazine prise comme référence, ont été administrés à raison de 40 mg.kg^-1 et le composé de l'exemple 2 à raison de 10 mg.kg^-1.
L'appréciation du ptosis (oeil gauche) est donnée selon la cotation de RUBIN et Coll. [J. Pharmacol. Exp. Ther. 120, 125-136 (195717 3 heures après l'administration de Réserpine.

Data set [4] concerns stéréotypies induites par l'amphétamine. The data set can be described thus: Potentiation of amphetamine-induced stereotypies in the rat (test B). Type of data set: in vivo, rats SPRAGUE-DAWLEY. The following applies: for B-Potentialisation des stéréotypies induites par l'amphétamine (score global sur 3 heures): global score over 3 h, printed as treated/control. The procedure: B - Potentialisation des stéréotypies induites par l'amphétamine
Ce test est effectué sur des rats SPRAGUE-DAWLEY de souche OFA, provenant de l'élevage IFFA CREDO et d'un poids moyen de 150 + 10 g.
Le protocole mis en oeuvre est celui préconisé par SIMON et CHERMAT [J. Pharmacol. (Paris) 3 (2) 235-238 (1972)]%. Le produit étudié (ou le véhicule seul pour le lot témoin) est administré par voie intrapéritonéale à raison de 5 mg.kg^-1.
Les résultats expriment le score global sur 3 heures.

Setting [5] is: 40 mg.kg^-1 oral (oesophageal intubation).
The mark [6] stands for this setting: 5 mg.kg^-1 i.p., percent increase of global score over control.

Each structure is given as a SMILES string.

For the compound `Cc1cc2occc2c(N2CCNCC2)n1` [EXEMPLE 1, 6-methyl-4-(l-piperazinyl)-furo [3,2-c] pyridine], the LD50 in data set [1] is 250 mg/kg. Besides, the “C-Antagonisme du comportement muricide” value in data set [2] worked out at 90%. Further, the “A-Activité anti-réserpinique vis-à-vis du ptosis” value in data set [3] (setting [5]) is on record as 13 / 23. Also, the “B-Potentialisation des stéréotypies induites par l'amphétamine (score global sur 3 heures)” value in data set [4] (5 mg.kg^-1 i.p.) was 118/95. For the same compound, in data set [4] (setting [6]), the “B-Potentialisation des stéréotypies induites par l'amphétamine” value is listed as 24,2%.
With `c1cc2occc2c(N2CCNCC2)n1` [EXEMPLE 2, 4-(l-piperazinyl)-furo [3,2-c] pyridine], in data set [1], the LD50 is 200 mg/kg. In addition, the “C-Antagonisme du comportement muricide” value in data set [2] was 74%. Moreover, the “A-Activité anti-réserpinique vis-à-vis du ptosis” value in data set [3] (10 mg.kg^-1 oral (oesophageal intubation)) is recorded as 15 / 22. For the same compound, the “B-Potentialisation des stéréotypies induites par l'amphétamine (score global sur 3 heures)” value in data set [4] (5 mg.kg^-1 i.p.) is on record as 129/114. Also, the “B-Potentialisation des stéréotypies induites par l'amphétamine” value in data set [4] (setting [6]) is 13,2%.
Regarding `c1ccc2nc(N3CCNCC3)ccc2c1` [QUIPAZINE, quipazine, reference compound], the LD50 in data set [1] is 233 to 376 mg/kg. Besides, the “C-Antagonisme du comportement muricide” value in data set [2] is given as 64,7%. The “A-Activité anti-réserpinique vis-à-vis du ptosis” value in data set [3] (setting [5]) is on record as 14 / 23. In addition, the “B-Potentialisation des stéréotypies induites par l'amphétamine” value in data set [4] (even at 20 I P) was “Inactif même à 20 I P”.
